# From patent US10000791B2, “Measurement method for human pancreatic lipase activity” (ASAHI KASEI PHARMA CORPORATION, priority 2013, dated 2018)
# How the values were obtained:
# non-pancreatic lipase = test: quantitative evaluation of influence of non-pancreatic lipase (measured value versus theoretical or reference value in heparin-administered samples); assay type: biochemical, human
# Text: Next, the influence of the non-pancreatic lipase activity was obtained as follows on the assumption that the Liquitech reagent is not influenced by the non-pancreatic lipase. First, with respect to measured values of the enzyme activity obtained in samples other than the heparin-administered samples, a regression equation (an independent variable X: enzyme activity attained by Liquitech, a dependent variable Y: enzyme activity attained by the comparative example or the present example) was obtained. Next, with respect to each heparin-administered sample, the variable Y was calculated as a theoretical value by substituting the measured value of the enzyme activity obtained by the Liquitech for the variable X of the regression equation. Thereafter, with respect to each heparin-administered sample, the actually measured value of the enzyme activity obtained by the comparative example or the present example was divided by the theoretical value of the variable Y to calculate a relative percentage (%). It is noted that the acceptable range of the influence was provisionally set as within ±20% in reference to the package insert of “Liquitech Lipase Color II” describing that the accuracy is within ±15% of known activity.
# In the present example, NaGDCA was selected as the conjugated bile acid and was combined with a non-conjugated bile acid, NaDCA, (mixed in equal amounts) to examine the behavior of a heparin-administered sample with the pH of a reaction solution changed to 7.1, 7.4 and 7.6. As the buffer solution, the BES buffer was used. As samples, (four) control samples (controls each containing a pancreatic lipase), (ten) normal samples and (nine) heparin-administered samples were used. As a comparative example, NaDCA (in a concentration of 30 mmol/L in the R-1) and NaTDCA (in a concentration of 10 mmol/L in the R-1) were used as the bile acid, and the reaction solution was adjusted to pH 7.95 (the Bicine buffer). Besides, “Liquitech Lipase Color II” manufactured by Roche Diagnostics was used for verifying the effect of the present example. “Liquitech Lipase Color II” was used in accordance with the package insert, and a special calibrator was used for calculating the enzyme activity. Thereafter, in the same manner as in Example 7, with respect to each heparin-administered sample, the actually measured value of the enzyme activity obtained by the comparative example or the present example was divided by the theoretical value to calculate a relative percentage (%). The influence of the non-pancreatic lipase activity and the acceptable range of the influence were the same as those in Example 7.
# As a comparative example, NaDCA and NaTDCA (respectively in concentrations of 30 mmol/L and 10 mmol/L in the R-1) were used as the bile acids, and the reaction solution was adjusted to pH 7.95 by using the Bicine buffer to measure a heparin-administered sample. […] The bile acids were used in a total concentration in the R-1 of 40 mmol/L (each in 20 mmol/L in using two of them, and each in 13.3 mmol/L in using three of them). Besides, “Liquitech Lipase Color II” manufactured by Roche Diagnostics was used for verifying the effect of the present example. “Liquitech Lipase Color II” was used in accordance with the package insert, and a special calibrator was used for calculating the enzyme activity. In each of the comparative example and the present example, the lipase activity was calculated by using a molecular extinction coefficient of 6300 L/mol·cm of the reduced NADP. Thereafter, in the same manner as in Example 7, with respect to each heparin-administered sample, the actually measured value of the enzyme activity obtained by the comparative example or the present example was divided by the theoretical value to calculate a relative percentage (%). The influence of the non-pancreatic lipase activity and the acceptable range of the influence were calculated in the same manner as in Example 7.
# human pancreatic lipase = test: pH dependence of human pancreatic lipase activity in the presence of bile acids (diglyceride substrate, UV method); assay type: biochemical; conditions: pH 7.2
smiles,measurement,setting,value
"C[C@H](CCC(=O)NCC(=O)[O-])[C@H]1CC[C@H]2[C@@H]3[C@H](O)C[C@@H]4C[C@H](O)CC[C@]4(C)[C@H]3CC[C@]12C.[Na+] [NaGCDCA, sodium glycochenodeoxycholate]",Measured value/theoretical value (Table 5),"non-pancreatic lipase; sample Heparin 31, pH 7.0",98.4%
same,Measured value/theoretical value (Table 5),"non-pancreatic lipase; sample Heparin 31, pH 7.95",311.8%
same,Measured value/theoretical value (Table 5),"non-pancreatic lipase; sample Heparin 32, pH 7.0",98.5%
same,Measured value/theoretical value (Table 5),"non-pancreatic lipase; sample Heparin 32, pH 7.95",492.8%
same,Measured value/theoretical value (Table 5),"non-pancreatic lipase; sample PRECINORM, pH 7.0",99.3%
same,Measured value/theoretical value (Table 5),"non-pancreatic lipase; sample PRECINORM, pH 7.95",107.6%
same,Measured value/theoretical value (Table 5),"non-pancreatic lipase; sample PRECIPATH, pH 7.0",100.9%
same,Measured value/theoretical value (Table 5),"non-pancreatic lipase; sample PRECIPATH, pH 7.95",111.6%
same,Measured value/theoretical value (Table 5),"non-pancreatic lipase; sample Pool 1, pH 7.0",101.8%
same,Measured value/theoretical value (Table 5),"non-pancreatic lipase; sample Pool 1, pH 7.95",99.4%
same,Measured value/theoretical value (Table 5),"non-pancreatic lipase; sample Pool 2, pH 7.0",89.8%
same,Measured value/theoretical value (Table 5),"non-pancreatic lipase; sample Pool 2, pH 7.95",126.2%
same,Measured value/theoretical value (Table 5),"non-pancreatic lipase; sample Seraclear LP, pH 7.0",87.0%
same,Measured value/theoretical value (Table 5),"non-pancreatic lipase; sample Seraclear LP, pH 7.95",60.4%
"C[C@H](CCC(=O)NCCS(=O)(=O)[O-])[C@H]1CC[C@H]2[C@@H]3CC[C@@H]4C[C@H](O)CC[C@]4(C)[C@H]3C[C@H](O)[C@]12C.[Na+] [NaTDCA, sodium taurodeoxycholate]",actually measured value/theoretical value (Table 4),"non-pancreatic lipase; Average of Heparin 21-25, pH 6.2",104.1%
same,actually measured value/theoretical value (Table 4),"non-pancreatic lipase; Average of Heparin 21-25, pH 6.4",102.7%
same,actually measured value/theoretical value (Table 4),"non-pancreatic lipase; Average of Heparin 21-25, pH 6.6",97.8%
same,actually measured value/theoretical value (Table 4),"non-pancreatic lipase; Average of Heparin 21-25, pH 6.9",94.9%
same,actually measured value/theoretical value (Table 4),"non-pancreatic lipase; Average of Heparin 21-25, pH 7.2",100.9%
same,actually measured value/theoretical value (Table 4),"non-pancreatic lipase; Average of Heparin 21-25, pH 7.4",119.2%
same,actually measured value/theoretical value (Table 4),"non-pancreatic lipase; Average of Heparin 21-25, pH 7.6",212.1%
same,"actually measured values relative to theoretical values, average","non-pancreatic lipase; heparin-administered samples, pH 7.4 or lower",smaller than 120.0%
same,actually measured value/theoretical value (Table 4),"non-pancreatic lipase; sample Heparin 21, pH 6.2",118.4%
same,actually measured value/theoretical value (Table 4),"non-pancreatic lipase; sample Heparin 21, pH 6.4",110.6%
same,actually measured value/theoretical value (Table 4),"non-pancreatic lipase; sample Heparin 21, pH 6.6",109.4%
same,actually measured value/theoretical value (Table 4),"non-pancreatic lipase; sample Heparin 21, pH 6.9",99.9%
same,actually measured value/theoretical value (Table 4),"non-pancreatic lipase; sample Heparin 21, pH 7.2",99.1%
same,actually measured value/theoretical value (Table 4),"non-pancreatic lipase; sample Heparin 21, pH 7.4",118.3%
same,actually measured value/theoretical value (Table 4),"non-pancreatic lipase; sample Heparin 21, pH 7.6",167.2%
same,actually measured value/theoretical value (Table 4),"non-pancreatic lipase; sample Heparin 22, pH 6.2",100.6%
same,actually measured value/theoretical value (Table 4),"non-pancreatic lipase; sample Heparin 22, pH 6.4",100.8%
same,actually measured value/theoretical value (Table 4),"non-pancreatic lipase; sample Heparin 22, pH 6.6",93.6%
same,actually measured value/theoretical value (Table 4),"non-pancreatic lipase; sample Heparin 22, pH 6.9",86.0%
same,actually measured value/theoretical value (Table 4),"non-pancreatic lipase; sample Heparin 22, pH 7.2",98.5%
same,actually measured value/theoretical value (Table 4),"non-pancreatic lipase; sample Heparin 22, pH 7.4",107.8%
same,actually measured value/theoretical value (Table 4),"non-pancreatic lipase; sample Heparin 22, pH 7.6",162.0%
same,actually measured value/theoretical value (Table 4),"non-pancreatic lipase; sample Heparin 23, pH 6.2",112.9%
same,actually measured value/theoretical value (Table 4),"non-pancreatic lipase; sample Heparin 23, pH 6.4",115.8%
same,actually measured value/theoretical value (Table 4),"non-pancreatic lipase; sample Heparin 23, pH 6.6",111.4%
same,actually measured value/theoretical value (Table 4),"non-pancreatic lipase; sample Heparin 23, pH 6.9",114.9%
same,actually measured value/theoretical value (Table 4),"non-pancreatic lipase; sample Heparin 23, pH 7.2",110.5%
same,actually measured value/theoretical value (Table 4),"non-pancreatic lipase; sample Heparin 23, pH 7.4",129.2%
same,actually measured value/theoretical value (Table 4),"non-pancreatic lipase; sample Heparin 23, pH 7.6",281.9%
same,actually measured value/theoretical value (Table 4),"non-pancreatic lipase; sample Heparin 24, pH 6.2",95.4%
same,actually measured value/theoretical value (Table 4),"non-pancreatic lipase; sample Heparin 24, pH 6.4",91.7%
same,actually measured value/theoretical value (Table 4),"non-pancreatic lipase; sample Heparin 24, pH 6.6",83.0%
same,actually measured value/theoretical value (Table 4),"non-pancreatic lipase; sample Heparin 24, pH 6.9",84.4%
same,actually measured value/theoretical value (Table 4),"non-pancreatic lipase; sample Heparin 24, pH 7.2",96.0%
same,actually measured value/theoretical value (Table 4),"non-pancreatic lipase; sample Heparin 24, pH 7.4",113.2%
same,actually measured value/theoretical value (Table 4),"non-pancreatic lipase; sample Heparin 24, pH 7.6",215.2%
same,actually measured value/theoretical value (Table 4),"non-pancreatic lipase; sample Heparin 25, pH 6.2",93.1%
same,actually measured value/theoretical value (Table 4),"non-pancreatic lipase; sample Heparin 25, pH 6.4",94.7%
same,actually measured value/theoretical value (Table 4),"non-pancreatic lipase; sample Heparin 25, pH 6.6",91.7%
same,actually measured value/theoretical value (Table 4),"non-pancreatic lipase; sample Heparin 25, pH 6.9",89.5%
same,actually measured value/theoretical value (Table 4),"non-pancreatic lipase; sample Heparin 25, pH 7.2",100.2%
same,actually measured value/theoretical value (Table 4),"non-pancreatic lipase; sample Heparin 25, pH 7.4",127.4%
same,actually measured value/theoretical value (Table 4),"non-pancreatic lipase; sample Heparin 25, pH 7.6",234.4%
same,proportion of the bile acid to the substrate for attaining the maximum lipase activity,human pancreatic lipase; substrate concentration 1.40 mmol/L,about 17
same,proportion of the bile acid to the substrate for attaining the maximum lipase activity,human pancreatic lipase; substrate concentration 1.63 mmol/L,about 15
